Target: Ube2V2 (Homo sapiens, UniProt Q15819)
Assay: T-REX in zebrafish embryos, biotin/streptavidin pulldown of HNEylated Ube2V2
Format: in vivo
Settings: human Halo-Ube2V2 mRNA-injected embryos
Experimental: Zebrafish cell lysis was performed with similar procedure as mammalian cells: 50 mM HEPES (pH 7.6), 150 mM NaCl, 1% Nonidet P-40, 0.2 mg/ml soybean protease inhibitor (Sigma), and 3× Roche cOmplete, mini, EDTA-free protease inhibitor cocktail by rapid freeze-thaw and votexing with zirconia beads (Bio spec 0.7 mm beads; 11079107zx).
Total protein concentration from either mammalian cell lysate or zebrafish lysate was determined using Bradford assay with BSA as standard. The lysate was subsequently diluted to 2 mg/mL with a buffer made up of 50 mM HEPES (pH 7.6) and 0.3 mM TCEP, and subjected to Click reaction with biotin azide for 30 min at 37° C. The final concentrations of each components were: 1% SDS, 5% t-BuOH, 200 μM Biotin azide, 2 mM TCEP, 0.9 mM CuSO4 and 0.1 mM Cu(TBTA). The lysate proteins were precipitated by adding 4 volumes of EtOH pre-chilled at −20° C. (EtOH final concentration is 80%). The sample was vortexed and incubated at −80° C. overnight (or at least 4 h) to facilitate precipitation. The precipitant was collected by centrifugation at 21,000×g for 120 min at 4° C. and washed twice with pre-chilled MeOH, once with pre-chilled acetone. […]
DDR preconditioning occurs in zebrafish embryos. […] Subsequently, the fish were fixed and γ-H2AX levels were measured using whole-mount immunofluorescence.

Chain of Ube2V2 (Q15819 whole entry): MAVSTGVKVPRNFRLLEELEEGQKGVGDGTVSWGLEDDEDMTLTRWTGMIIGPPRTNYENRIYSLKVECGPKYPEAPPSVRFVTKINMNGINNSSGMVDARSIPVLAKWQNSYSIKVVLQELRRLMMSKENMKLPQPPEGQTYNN

SMILES: CCCCCC(O)/C=C/C=O (stereo not shown) [HNE, 4-hydroxynonenal]
- HNEylation of Ube2V2 in zebrafish: significantly HNEylated

Reference: patent publication US11506670B2, “Method of genome-wide direct identification of electrophile-sensing targets” (Cornell University, priority 2018, dated 2022)
